Assay results from publication PMC10366102, “Dose escalation and expansion cohorts in patients with advanced breast cancer in a Phase I study of the CDK7-inhibitor samuraciclib” (Nature Communications, 2023).

Test system: phosphorylated RNA polymerase II (pPolII)
Assay: Flow cytometry of pPolII in lymphocytes (PBMC preparations)
Type: in vivo, human
Settings: Module 1A, across all doses, Cycle 2 Day 1
Method: Per-protocol ctDNA samples were taken in Module 1B-1 at screening, C1D1, C2D1 and on D1 of alternating cycles from Cycle 3; in Module 2A at screening, C1D1 and at either C2D1 (240 mg) or C2D15 (360 mg) for mutational analysis[24],[33], (Supplementary Information). pPolII in lymphocytes and pPolII and pCDK1/2/3 in core needle tissue samples from patients recruited to the paired biopsy cohort were evaluated for on-target pharmacodynamic analyses. […]
with the sponsor. All investigator sites attended the SRC so that updates on toxicity and MTD could be communicated immediately. No more than 6 participants could be recruited at a non-tolerated dose […]
A summary of DLTs by cohort is provided in Supplementary Table 5. […]
Cells were analysed cells on a BD Fortessa X20, acquiring 100,000 events. […]
analysed using FlowJo (Treestar) version 10.4.2 to report the median fluorescence intensity of staining […]
although not reaching statistical significance due to the low number of patients. pPolII was determined by a flow cytometry assay on samples of peripheral blood mononuclear cell (PBMC) preparations […]
H-scores for pre-dose and on-study biopsies and summary statistics for the observed H-score when stained for pCDK1/2/3 and pPolII are shown in Supplementary Table 11. Significance was calculated using Student’s one-tailed paired t-test, where the alternative hypothesis was that on-study samples had […]

Q: With CC(C)c1cnn2c(NCc3ccccc3)cc(NC[C@H]3CCNC[C@@H]3O)nc12 [samuraciclib, Samuraciclib] as the compound, how does the “Reduction of pPolII in lymphocytes” value read?
A: approximately 30%
